The values below come from patent US7871797B2, “DNA encoding a bacterial protease for degrading gelatin and collagen” (Jellice Co., Ltd., priority 2003, dated 2011).

Experiment [1] deals with enzyme (protease) of the present invention. As to the kind of experiment: Cutting activity (specific protease activity) on fluorescence-labeled synthetic peptides. Type of experiment: biochemical, Aureobacterium sp. MIM-CG-9535-I. The following applies: for Present or Absent of Specific degradation activity: fluorescence-labeled peptides with varied peptide chain; for Protease cutting activity (degradation of synthetic substrate), Enzyme of the present invention: 100 microgram labeled peptide, 1 microgram protease, 10 min at 37° C. in the dark. The text has this:
Fluorescence-labeled peptides having the amino acid sequences denoted by (1) to (3) below are synthesized by the usual methods. Specifically, a fluorescent substance is attached as label on one side of the cutting site of a peptide having one of the amino acid sequences listed below, and a light-extinguishing substance is attached on the other side. Only when the labeled peptide has been cleaved is florescence detected. No fluorescence is detected even when employed as substrate for an enzyme not having cutting activity on the amino acid sequences given below. The substances used to label the peptide are not specifically limited other than that they be fluorescent and light-extinguishing substances. For example, N-methylanthranic acid can be employed as the fluorescent substance, and a dinitrophenyl group can be employed as the light-extinguishing substance.
To determine specific protease activity in the present invention, a fluorescence-labeled synthetic peptide, obtained by labeling a peptide having one of the amino acid sequences denoted by (1) to (3) above with N-methylanthranic acid on one end and labeling the other end thereof with a dinitrophenyl group, is employed as substrate and incubated with a prescribed quantity of enzyme for a prescribed period in the dark. Subsequently, the product is separated by reverse-phase chromatography and the fluorescent intensity of the separated product is measured to determine cutting activity.
Nma/Dnp florescence-labeled peptides (excitation wavelength 340 nm, fluorescence wavelength 440 nm) having the amino acid sequences of (1) to (3) below labeled on one end with N-methylanthranic acid and on the other end with a dinitrophenyl group were synthesized with a peptide synthesizer by the usual method.
Employing as substrate one of the fluorescence-labeled synthetic peptides obtained, cutting activity was measured under the following conditions.
(§1) A 100 microgram quantity of fluorescence-labeled synthetic peptide was adjusted to 0.2 mg/mL with 10 mM Tris buffer solution, 1 microgram of the above protease of the present invention was added, and the mixture was incubated for 10 min at 37° C. in the dark. The enzyme reaction solution obtained was subjected to reverse-phase HPLC using TSKgel® ODS-80Ts (silica-based, reverse phase chromatography resin; Tosoh Corp.) from 0.1 percent TFA to 80 percent acetonitrile-0.1 percent TFA at a flow rate of 1 mL/min and a gradient of 40 min to separate the degraded peptides. Employing A215 and a fluorescence spectrometer for high-performance liquid chromatography made by Shimatsu Corp., fluorescent intensity was measured at an excitation wavelength of 340 nm and a fluorescence wavelength of 440 nm.
The structure of the peptide chain was varied in the amino acid sequence of (1) above, fluorescence-labeled synthetic peptides were synthesized in the same manner as above, and cutting activity was measured in the same manner as above to verify the amino acids required for the above specific degradation activity.
Target sequence in this assay (as listed by the source): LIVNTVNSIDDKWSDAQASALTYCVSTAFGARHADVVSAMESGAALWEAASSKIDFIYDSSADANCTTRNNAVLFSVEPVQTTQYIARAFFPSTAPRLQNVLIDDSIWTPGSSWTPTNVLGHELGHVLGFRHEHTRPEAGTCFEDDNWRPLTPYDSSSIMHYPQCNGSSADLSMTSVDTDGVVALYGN

Experiment [2] has as its system enzyme described in Japanese Patent Application Publication No. 2000-102381. As to the kind of experiment: Cutting activity on fluorescence-labeled synthetic peptides, comparison enzyme. The format is biochemical, Aureobacterium. The conditions noted are these: identical conditions: 10 min at 37° C. in the dark. On the procedure: as §1
For comparison, the cutting activity of the enzyme described in the above-cited patent application publication (Japanese Patent Application Publication No. 2000-102381) was measured under identical conditions.

The subject of experiment [3] is enzyme (protease) of the present invention. Type of experiment: biochemical, Aureobacterium sp. MIM-CG-9535-I. How it is done: Reagents in the form of o-phenanthroline, EDTA, EGTA, L-cysteine, 2-mercaptoethanol, N-ethylmaleimide, antipain, leupepsin, E-64, phosphoramidon, trypsin inhibitor, chymostatin, TCPK, PMSF, and iodoacetamide were employed as inhibitors.
Each of the reagents was mixed with the synthetic substrate after which the enzyme was added. The degradation reaction was conducted for 30 min at 37° C. and the enzymatic activity was measured. Adopting the case where no inhibitor was added as 100 percent, the relative residual enzymatic activity was calculated.

The subject of experiment [4] is protease described in Japanese Patent Application Publication No. 2000-102381. The conditions noted are these: protease of JP 2000-102381; cited from earlier work.
Experiment [5] shares this test system. The conditions noted are these: protease of JP 2000-102381; cited from earlier work. This is another data set of the same source.
Setting [6] is: inhibitor 20 mM, 30 min at 37° C., no inhibitor = 100 percent.
Where [7] appears, read: inhibitor 0.05 mM, 30 min at 37° C., no inhibitor = 100 percent.

Read-outs that look alike come from different tables or passages of the source. Starred links: 1 amine or outer side, 2 acyl side, 3 side chain; linkers in the order of their positions; H or OH if unused. Non-standard residues stand in square brackets, D forms with d. No end group written: not given here. *: point of attachment. K(DNP) = O=C([C@H](CCCCNc1ccc([N+](=O)[O-])cc1[N+](=O)[O-])N[*:1])[*:2]; Dnp = O=[N+]([O-])c1ccc(*)c([N+](=O)[O-])c1; Benzoyl(2-NHMe) = CNc1ccccc1C(=O)*

On to “G FAGP: fluorescence-labeled synthetic peptide, single letter code (GFAGP; also: fluorescence label, site not given here)”, for which the “Present or Absent of Specific degradation activity” value (shortened to “Present or Absent”) in experiment [1] is “Absent”.

In the case of “Nma-Gly-Pro-Gln-Gly-Phe-Gln-Gly-Pro-Lys-(DNP)r-NH2 ({Benzoyl(2-NHMe)}-GPQGFQGP-{K(DNP)-dR-NH2}; SMILES CNc1ccccc1C(=O)NCC(=O)N1CCC[C@H]1C(=O)N[C@@H](CCC(N)=O)C(=O)NCC(=O)N[C@@H](Cc1ccccc1)C(=O)N[C@@H](CCC(N)=O)C(=O)NCC(=O)N1CCC[C@H]1C(=O)N[C@@H](CCCCNc1ccc([N+](=O)[O-])cc1[N+](=O)[O-])C(=O)N[C@H](CCCNC(=N)N)C(N)=O) [Gly-Pro-Gln-Gly-↓-Phe-Gln-Gly-Pro, fluorescence-labeled synthetic substrate]”, the “Protease cutting activity (degradation of synthetic substrate), Enzyme of the present invention” value in experiment [1] is on record as “(◯) Degrades”. Also, the “Protease cutting activity (degradation of synthetic substrate), Enzyme of patent application publication” value in experiment [2] is listed as “(X) Does not degrade”.

For `O=S(=O)(F)Cc1ccccc1` [PMSF, phenylmethanesulfonyl fluoride], the “Residual activity (%)” value in experiment [3] (setting [6]) was found to be 84%. Besides, the Enzyme inhibition entry in experiment [4] is listed as “not”.

“Pro-Ala-Gly-Phe-Ala-Gly-Pro (PAGFAGP; also: fluorescent label, type and site not given here) [PAG FAGP, fluorescence-labeled synthetic peptide, single letter code]”: the “Present or Absent” value in experiment [1] is listed as “Present”.

With `CC(C)C[C@H](NC(=O)[C@H]1O[C@@H]1C(=O)O)C(=O)NCCCCN=C(N)N` [E-64], the “Residual activity (%)” value in experiment [3] (setting [7]) worked out at 95%.

Regarding “Nma-Thr-Gln-Ser-Leu-Val-Thr-Pro-Lys-(DNP)r-NH2 [Gln-Thr-Gln-Ser-↓-Leu-Val-Thr-Pro]”, in experiment [1], the “Protease cutting activity (degradation of synthetic substrate), Enzyme of the present invention” value is on record as “(◯) Degrades”. Moreover, the “Protease cutting activity (degradation of synthetic substrate), Enzyme of patent application publication” value in experiment [2] was “(X) Does not degrade”.

`OCCS` [2-ME, 2-mercaptoethanol]: the “Residual activity (%)” value in experiment [3] (setting [6]) worked out at 73%.

As for `CC(C)C[C@H](NC(=O)[C@@H](NC(=O)N[C@@H](Cc1ccccc1)C(=O)O)[C@@H]1CCN=C(N)N1)C(=O)N[C@H](C=O)Cc1ccccc1` [Chymostatin, chymostatin], the “Residual activity (%)” value in experiment [3] (setting [7]) amounted to 85%.

For the compound “Pro-Gln-Gly-Ile-Ala-Gly-Gln (PQGIAGQ; also: fluorescence label, site not given here) [Pro-Gln-Gly-↓-Ile-Ala-Gly-Gln, fluorescence-labeled synthetic substrate degraded by the enzyme of the earlier publication]”, in experiment [1], the “Protease cutting activity (degradation of synthetic substrate), Enzyme of the present invention” value was “(X) Does not degrade”. Further, in experiment [2], the “Protease cutting activity (degradation of synthetic substrate), Enzyme of patent application publication” value was “(◯) Degrades”.

For `N[C@@H](CS)C(=O)O` [L-Cys, L-cysteine], the “Residual activity (%)” value in experiment [3] (setting [6]) stood at 0%. In experiment [4], the Enzyme inhibition entry is “inhibited”.

Turning to `Cc1ccc(S(=O)(=O)N[C@@H](Cc2ccccc2)C(=O)CCl)cc1` [TCPK], the “Residual activity (%)” value in experiment [3] (inhibitor 0.1 mM, 30 min at 37° C., no inhibitor = 100 percent) is reported as 95%.

Turning to “Nma-Gly-Pro-Ala-Gly-Phe-Ala-Gly-Pro-Lys-(DNP)r-NH2 ({Benzoyl(2-NHMe)}-GPAGFAGP-{K(DNP)-dR-NH2}; SMILES CNc1ccccc1C(=O)NCC(=O)N1CCC[C@H]1C(=O)N[C@@H](C)C(=O)NCC(=O)N[C@@H](Cc1ccccc1)C(=O)N[C@@H](C)C(=O)NCC(=O)N1CCC[C@H]1C(=O)N[C@@H](CCCCNc1ccc([N+](=O)[O-])cc1[N+](=O)[O-])C(=O)N[C@H](CCCNC(=N)N)C(N)=O) [Gly-Pro-Ala-Gly-↓-Phe-Ala-Gly-Pro, fluorescence-labeled synthetic substrate]”, in experiment [1], the “Protease cutting activity (degradation of synthetic substrate), Enzyme of the present invention” value was “(◯) Degrades” and the “Present or Absent” value is given as “Present”. Besides, the “Protease cutting activity (degradation of synthetic substrate), Enzyme of patent application publication” value in experiment [2] was “(X) Does not degrade”.

Consider `CC(=O)N[C@@H](CC(C)C)C(=O)N[C@@H](CC(C)C)C(=O)N[C@H](C=O)CCCNC(=N)N` [Leupepsin, leupepsin], for which the “Residual activity (%)” value in experiment [3] (setting [7]) is reported as 92%.

As for casein, the Degradation activity result in experiment [5] is “exhibits degradation activity”.

With `CCN1C(=O)C=CC1=O` [N-Ethylmaleimide, N-ethylmaleimide], the “Residual activity (%)” value in experiment [3] (setting [6]) is 79%. In addition, the Enzyme inhibition result in experiment [4] is “not”.

With `O=C(O)CN(CCN(CC(=O)O)CC(=O)O)CC(=O)O` [EDTA, ethylenediamine tetraacetic acid], the “Residual activity (%)” value in experiment [3] is listed as 93%. In experiment [4], the Enzyme inhibition result is on record as “not”.

As to `c1cnc2c(c1)ccc1cccnc12` [o-Phenanthroline, o-phenanthroline], the “Residual activity (%)” value in experiment [3] (inhibitor 2 mM, 30 min at 37° C., no inhibitor = 100 percent) is 0%. Besides, the Enzyme inhibition entry in experiment [4] was “inhibited”.

Consider “DNP-Pro-Gln-Gly-Ile-Ala-Gly-Gln-D-Arg (Dnp-PQGIAGQ[dR]) [synthetic collagenase substrate]”, for which the Degradation activity result in experiment [5] is “only slight degradation activity”.

For the compound “DNP-Gln-Gly-Ile-Ala-Gly-Gln-D-Arg (Dnp-QGIAGQ[dR]) [synthetic substrate]”, the Degradation activity result in experiment [5] is “no degradation activity”.

For the compound `NC(=O)CI` [Iodoacetamide, iodoacetamide], in experiment [3] (setting [6]), the “Residual activity (%)” value came to 77%. The Enzyme inhibition result in experiment [4] is “not”.

As to `O=C(O)CN(CCOCCOCCN(CC(=O)O)CC(=O)O)CC(=O)O` [EGTA], the “Residual activity (%)” value in experiment [3] (inhibitor 10 mM, 30 min at 37° C., no inhibitor = 100 percent) was 68%.

For `CC(C)C[C@H](NP(=O)(O)O[C@@H]1O[C@@H](C)[C@H](O)[C@@H](O)[C@H]1O)C(=O)N[C@@H](Cc1c[nH]c2ccccc12)C(=O)O` [Phosphoramidon, phosphoramidon], the “Residual activity (%)” value in experiment [3] (setting [7]) was 91%.

Regarding “GPAG FA: fluorescence-labeled synthetic peptide, single letter code (GPAGFA; also: fluorescence label, site not given here)”, in experiment [1], the “Present or Absent” value is “Absent”.

As for “GPAG F: fluorescence-labeled synthetic peptide, single letter code (GPAGF; also: fluorescence label, site not given here)”, the “Present or Absent” value in experiment [1] is “Absent”.

As for “GPAG FAG: fluorescence-labeled synthetic peptide, single letter code (GPAGFAG; also: fluorescence label, site not given here)”, the “Present or Absent” value in experiment [1] is “Absent”.

Consider “AG FAGP: fluorescence-labeled synthetic peptide, single letter code (AGFAGP; also: fluorescence label, site not given here)”, for which the “Present or Absent” value in experiment [1] is “Absent”.
